Measured values published in patent publication US20240252486A1, “ALGOSTATIC AGENTS FOR PREVENTING TRANSITION FROM ACUTE TO CHRONIC PAIN” (The Regents of the University of California, priority 2021, published 2024).

What was measured:
formalin-injected mice [1] = assay: Formalin test: acute nocifensive behavior; conditions: pretreatment; ARN16186 10 mg-kg^−1 IP, ARN19702 30 mg-kg^−1 IP; wild-type mice, 1% formalin
formalin-injected mice [2] = assay: Conditioned place preference (spontaneous/ongoing pain) after formalin; format: in vivo, mouse; conditions: ARN19702 30 mg-kg^−1 IP once daily for 3 days starting 24 h after formalin; PFD14
Procedure: Preconditioning: 12 days after tissue damage, mice were placed in the two chamber CPP apparatus (for details see (63)) and the time spent in each chamber was recorded for 10 min and analyzed to determine preconditioning baseline.
Conditioning: Mice underwent single trial conditioning 24 h after preconditioning using a biased approach. In the morning of the conditioning day, animals received saline and were immediately placed into the preferred chamber (saline paired) of the CPP box for 30 min, with no access to the other chambers. Approximately 4 h later, mice received gabapentin (50 mg-kg^−1, IP) and were immediately confined in the non-preferred chamber for 30 min (gabapentin paired).
Preference test: On the test day (POD14 or PFD14), 12 h after the afternoon pairing, mice were placed back into the center of the CPP chambers with free access to all chambers for 10 min. Time (s) spent in each chamber was recorded and evaluated by a blind observer to determine preference.

naïve animals = assay: Baseline nociceptive thresholds in naïve animals; format: in vivo, mouse; conditions: ARN19702 30 mg-kg^−1 IP, ARN16186 10 mg-kg^−1 IP
[3] = system: spinal-cord transcription; assay: RNA sequencing and metabolomic analysis of L4-L6 spinal cord; format: in vivo, mouse; conditions: systemic ARN19702 administration on PFD2-3
Procedure: RNA sequencing and bioinformatics analysis: We extracted total RNA with the RNeasy Mini Kit (Qiagen). Samples with RNA integrity number ≥8.5 were kept for library construction. cDNA synthesis, amplification, library construction, and sequencing were performed at Novogene (Bejing, China) using the Illumina NovaSeq platform with paired-end 150 bp (PE 150) sequencing strategy. Downstream analysis was performed using a combination of programs including STAR, HTseq, Cufflink and Novogene's wrapped scripts. Alignments were parsed using the STAR program and differential expressions were determined using DESeq2/edgeR. Gene Ontology (GO) and Kyoto Encyclopedia of Genes and Genomes (KEGG) enrichment were implemented using the ClusterProfiler.
Metabolomic analysis: Metabolomics analyses were performed at the West Coast Metabolomics Center of the University of California Davis, as described^55. Briefly, frozen lumbar spinal cord (L4-L6) fragments (˜5 mg) were homogenized in Eppendorf tubes (2 ml) for 2 min using metal spheres ([…] diameter) in a MM300 mill (Retsch, Germany). A mixture of isopropanol/acetonitrile/water (3/3/2, vol) was added to the grounded tissue (1 ml per 20 mg), stirred for 10 s and shaken at 4° C. for 5 min. […]

formalin-injected mice [4] = assay: Ex vivo diffusion tensor imaging of spinal cord and forebrain; format: in vivo, mouse; conditions: ARN19702 30 mg-kg^−1 IP once daily for 3 days starting 24 h after formalin; PFD14
Procedure: Magnetic Resonance Imaging (MRI) acquisition: Mice were anesthetized, flushed intracardially with ice-cold PBS and then with 4% PAF in PBS (pH 7.4). Brains and spinal cords were removed within their osseous structures and post-fixed overnight in 4% PAF, followed by three 5-min washes with PBS the next day, and stored in PBS (pH 7.4) containing sodium azide (0.02%, weight) at 4 °C. Ex vivo diffusion tensor imaging (DTI) and T2 weighted imaging ([…]) studies were performed using a 9.4 T Bruker Avance imager (Bruker Biospin, Billerica, USA). Data were acquired with the following parameters: 1.5 cm field of view, 0.5 mm slice thickness, and a 128×128 acquisition matrix and zero filled to 256×256. DTI parameters were as follows: repetition time (TR)/echo time (TE)=8000 ms/35.66 ms, 30 isolinear directions, B=[…], and 5 B0 images acquired prior to weighted images. […] parameters were TR/TE=4000/10 ms with 10 equally spaced echoes. Brain: We used 3D automatic registration for unbiased region parcellation to analyze DTI metrics in brain structures. Scans underwent eddy current correction and brain was digitally removed from surrounding skull and muscles using 3D Pulse-Coupled Neural Networks (PCNN3D v1.2) in MATLAB R2017a (MathWorks). […] The resultant maps were then analyzed in DSI studio (http://dsi-studio.labsolver.org). […]

## CCS(=O)(=O)c1ccccc1C(=O)N1CCN(c2nc3ccc(F)cc3s2)C[C@@H]1C [ARN19702]
formalin-injected mice [1]
  nocifensive response to formalin: prevents
formalin-injected mice [2]
  ongoing pain: normalizing
naïve animals
  baseline nociceptive thresholds: Neither compound affected
[3]
  transcriptional and metabolic changes in L4-L6 spinal cord on the following day: prevented the appearance
formalin-injected mice [4]
  CPLS-associated changes in spinal and forebrain DTI measures: reversing
